Data from patent US20250270180A1, “MEK INHIBITORS AND THERAPEUTIC USES THEREOF” (Immuneering Corporation, priority 2020, published 2025).

The compounds below were run on A549 pERK (assay: A549-pERK, 2 h (quantitative Western, Jess)). Settings: Homo sapiens, A549, 10 nM, phospho:total ratio normalized to DMSO control.
Type: cell-based
Protocol: A549 or […] cells were treated in duplicate for two hours with compounds at varying concentrations. After two hours, the cells were lysed, snap frozen, and stored at −80° C. After storage, the lysate was quantified with the Bradford assay. Before the lysates were prepared to run on the Jess, the lysates were diluted to 1 mg/mL for pERK analysis and 1.5 mg/mL pMEK analysis using quantitative Western blotting. ERK and MEK phosphorylation levels were estimated by taking the ratio of phospho-protein to total protein and normalizing to the DMSO control. The results of this study are described in Tables 14-16.

Compound | activity at 0.01 µM [%]
CNS(=O)(=O)Nc1nccc(Cc2c(CN3CCNCC3)c3ccc(Oc4ncccn4)cc3oc2=O)c1F [Compound 104] | 77.3
CNS(=O)(=O)Nc1cccc(Cc2c(CN(C)C)c3ccc(Oc4ncccn4)cc3oc2=O)c1F [Compound 129] | 92.2
CNS(=O)(=O)Nc1cccc(Cc2c(CN(C)C)c3ccc(OC(=S)N(C)C)cc3oc2=O)c1F [Compound 204] | 83.4

Same assay, conditions: Homo sapiens, A549, 2 h, 10 nM, phospho:total ratio normalized to DMSO control

Compound | activity at 0.01 µM [%]
CNS(=O)(=O)Nc1cccc(Cc2c(CNCC3CC3)c3ccc(OC(=O)N(C)C)cc3oc2=O)c1F [Compound 26] | 94.2
CNS(=O)(=O)Nc1cccc(Cc2c(CNCc3ccncc3)c3ccc(OC(=O)N(C)C)cc3oc2=O)c1F [Compound 29] | 96
CNS(=O)(=O)Nc1cccc(Cc2c(CNc3ccccc3)c3ccc(OC(=O)N(C)C)cc3oc2=O)c1F [Compound 30] | 54.3
CNS(=O)(=O)Nc1cccc(Cc2c(CNc3ccn[nH]3)c3ccc(OC(=O)N(C)C)cc3oc2=O)c1F [Compound 31] | 66.7
CNS(=O)(=O)Nc1cccc(Cc2c(CNCc3ccco3)c3ccc(OC(=O)N(C)C)cc3oc2=O)c1F [Compound 56] | 92.9
CNS(=O)(=O)Nc1cccc(Cc2c(CNCC(=O)N(C)C)c3ccc(OC(=O)N(C)C)cc3oc2=O)c1F [Compound 57] | 106
CNS(=O)(=O)Nc1cccc(Cc2c(CNCCN(C)C)c3ccc(OC(=O)N(C)C)cc3oc2=O)c1F [Compound 58] | 98.7
CNS(=O)(=O)Nc1cccc(Cc2c(CNCc3cccc(C(F)(F)F)c3)c3ccc(OC(=O)N(C)C)cc3oc2=O)c1F [Compound 59] | 105
CNS(=O)(=O)Nc1cccc(Cc2c(CN3CCN(C(C)C)CC3)c3ccc(OC(=O)N(C)C)cc3oc2=O)c1F [Compound 62] | 73
CNS(=O)(=O)Nc1cccc(Cc2c(CNC(C)c3ccccc3)c3ccc(OC(=O)N(C)C)cc3oc2=O)c1F (centres unmarked) [Compound 63] | 88
CNS(=O)(=O)Nc1cccc(Cc2c(CN3CCN(C4CC4)CC3)c3ccc(OC(=O)N(C)C)cc3oc2=O)c1F [Compound 64] | 73
CNS(=O)(=O)Nc1cccc(Cc2c(CN3CCN(C(=O)c4ccccc4)CC3)c3ccc(OC(=O)N(C)C)cc3oc2=O)c1F [Compound 65] | 100
CNS(=O)(=O)Nc1cccc(Cc2c(CNCCC(F)(F)F)c3ccc(OC(=O)N(C)C)cc3oc2=O)c1F [Compound 66] | 104
CNS(=O)(=O)Nc1cccc(Cc2c(CN3CCN(S(C)(=O)=O)CC3)c3ccc(OC(=O)N(C)C)cc3oc2=O)c1F [Compound 68] | 68.9
CCN1CCN(Cc2c(Cc3cccc(NS(=O)(=O)NC)c3F)c(=O)oc3cc(OC(=O)N(C)C)ccc23)CC1=O [Compound 69] | 101
CNS(=O)(=O)Nc1cccc(Cc2c(CNCCCCO)c3ccc(OC(=O)N(C)C)cc3oc2=O)c1F [Compound 71] | 99.4
C#CCN(C)Cc1c(Cc2cccc(NS(=O)(=O)NC)c2F)c(=O)oc2cc(OC(=O)N(C)C)ccc12 [Compound 76] | 62.1
CNS(=O)(=O)Nc1cccc(Cc2c(CNc3ccn(C)n3)c3ccc(OC(=O)N(C)C)cc3oc2=O)c1F [Compound 89] | 83.7
CNS(=O)(=O)Nc1cccc(Cc2c(CNc3cn[nH]c3)c3ccc(OC(=O)N(C)C)cc3oc2=O)c1F [Compound 92] | 93.8

Compound | activity at 0.01 µM [%]
CNS(=O)(=O)Nc1cccc(Cc2c(CNc3nccs3)c3ccc(OC(=O)N(C)C)cc3oc2=O)c1F [Compound 94] | 93.5
CNS(=O)(=O)Nc1cccc(Cc2c(CN(C)c3cccc(Cl)c3)c3ccc(OC(=O)N(C)C)cc3oc2=O)c1F [Compound 95] | 80.2
CNS(=O)(=O)Nc1cccc(Cc2c(CNc3ccnn3C)c3ccc(OC(=O)N(C)C)cc3oc2=O)c1F [Compound 96] | 102
CNS(=O)(=O)Nc1cccc(Cc2c(CN(C)c3ccccc3Cl)c3ccc(OC(=O)N(C)C)cc3oc2=O)c1F [Compound 99] | 98.9
CCS(=O)(=O)Nc1cccc(Cc2c(CN(C)C)c3ccc(OC(=O)N(C)C)cc3oc2=O)c1F [Compound 120] | 77.2
CNS(=O)(=O)Nc1nccc(Cc2c(CN(C)C)c3ccc(OC(=O)N(C)C)cc3oc2=O)c1F [Compound 124] | 94.6
CNS(=O)(=O)Nc1cccc(Cc2c(CN(C)C)c3ccc(OC(=O)N4CCN(C)CC4)cc3oc2=O)c1F [Compound 127] | 110
CNS(=O)(=O)Nc1cccc(Cc2c(CNCC(=O)O)c3cc(Cl)c(OC(=O)N(C)C)cc3oc2=O)c1F [Compound 133] | 88.1
CNS(=O)(=O)Nc1cccc(Cc2c(CN3CC4CC3CN4)c3ccc(OC(=O)N(C)C)cc3oc2=O)c1F (centres unmarked) [Compound 138] | 96.9
CNS(=O)(=O)Nc1cccc(Cc2c(CN3CC(C)C3)c3ccc(OC(=O)N(C)C)cc3oc2=O)c1F [Compound 142] | 94.6
CNS(=O)(=O)Nc1cccc(Cc2c(CN3CC(C)(C)C3)c3ccc(OC(=O)N(C)C)cc3oc2=O)c1F [Compound 143] | 104
CNS(=O)(=O)Nc1cccc(Cc2c(CN3CC(Cl)C3)c3ccc(OC(=O)N(C)C)cc3oc2=O)c1F [Compound 145] | 104
CNS(=O)(=O)Nc1nccc(Cc2c(CN3CC(F)(F)C3)c3ccc(OC(=O)N(C)C)cc3oc2=O)c1F [Compound 149] | 69.1
CNS(=O)(=O)Nc1cccc(Cc2c(CN3CC4(COC4)C3)c3ccc(OC(=O)N(C)C)cc3oc2=O)c1F [Compound 152] | 70.5
CNS(=O)(=O)Nc1cccc(Cc2c(CN3CC(N(C)C)C3)c3ccc(OC(=O)N(C)C)cc3oc2=O)c1F [Compound 154] | 64
CN(C)C(=O)Oc1ccc2c(CN3CCC3)c(Cc3ccnc(NS(=O)(=O)C4CC4)c3F)c(=O)oc2c1 [Compound 155] | 84.9
CNS(=O)(=O)Nc1cccc(Cc2c(CN3CCNC(=O)CC3)c3ccc(OC(=O)N(C)C)cc3oc2=O)c1F [Compound 158] | 80
CNS(=O)(=O)Nc1cccc(Cc2c(CN3CCC4(CN(C)C4)C3)c3ccc(OC(=O)N(C)C)cc3oc2=O)c1F [Compound 159] | 82.7
CNC1CN(Cc2c(Cc3cccc(NS(=O)(=O)NC)c3F)c(=O)oc3cc(OC(=O)N(C)C)ccc23)C1 [Compound 164] | 102

Compound | activity at 0.01 µM [%]
CNS(=O)(=O)Nc1cccc(Cc2c(CN3CC(N)C3)c3ccc(OC(=O)N(C)C)cc3oc2=O)c1F [Compound 165] | 104
CCN(C)Cc1c(Cc2cccc(NS(=O)(=O)CC)c2F)c(=O)oc2cc(OC(=O)N(C)C)c(Cl)cc12 [Compound 166] | 60.9
CNS(=O)(=O)Nc1cccc(Cc2c(CN3CC(C#N)C3)c3ccc(OC(=O)N(C)C)cc3oc2=O)c1F [Compound 172] | 111
CNS(=O)(=O)Nc1cccc(Cc2c(CN3CC(C(N)=O)C3)c3ccc(OC(=O)N(C)C)cc3oc2=O)c1F [Compound 173] | 97.7
CNS(=O)(=O)Nc1cccc(Cc2c(CO)c3ccc(OC(=O)N(C)C)cc3oc2=O)c1F [Compound 180] | 75
CNS(=O)(=O)Nc1cccc(Cc2c(CN3CCOCC3=O)c3ccc(OC(=O)N(C)C)cc3oc2=O)c1F [Compound 181] | 100
CNS(=O)(=O)Nc1cccc(Cc2c(CCNCC3CC3)c3ccc(OC(=O)N(C)C)cc3oc2=O)c1F [Compound 186] | 80.1
CNS(=O)(=O)Nc1cccc(Cc2c(CNc3ccc(OC)nc3)c3ccc(OC(=O)N(C)C)cc3oc2=O)c1F [Compound 193] | 90.7
CNS(=O)(=O)Nc1cccc(Cc2c(CC(=O)N3CCN(C)CC3)c3ccc(OC(=O)N(C)C)cc3oc2=O)c1F [Compound 195] | 113
CNS(=O)(=O)Nc1cccc(Cc2c(CC(=O)N(C)C)c3ccc(OC(=O)N(C)C)cc3oc2=O)c1F [Compound 196] | 106
CNS(=O)(=O)Nc1cccc(Cc2c(CC(=O)N(C)CC#N)c3ccc(OC(=O)N(C)C)cc3oc2=O)c1F [Compound 198] | 109
CNS(=O)(=O)Nc1cccc(Cc2c(CC(=O)Nc3ccon3)c3ccc(OC(=O)N(C)C)cc3oc2=O)c1F [Compound 201] | 119
CNS(=O)(=O)Nc1cccc(Cc2c(CC(=O)Nc3ccn[nH]3)c3ccc(OC(=O)N(C)C)cc3oc2=O)c1F [Compound 202] | 119
CCC(=O)NCc1c(Cc2cccc(NS(=O)(=O)NC)c2F)c(=O)oc2cc(OC(=O)N(C)C)ccc12 [Compound 207] | 97.4
CNS(=O)(=O)Nc1cccc(Cc2c(CNC(=O)C(C)C)c3ccc(OC(=O)N(C)C)cc3oc2=O)c1F [Compound 208] | 105
CNS(=O)(=O)Nc1cccc(Cc2c(CNC(=O)c3c[nH]nn3)c3ccc(OC(=O)N(C)C)cc3oc2=O)c1F [Compound 211] | 121
CNS(=O)(=O)Nc1cccc(Cc2c(CNC(=O)C(C)(C)O)c3ccc(OC(=O)N(C)C)cc3oc2=O)c1F [Compound 212] | 100
CNS(=O)(=O)Nc1cccc(Cc2c(CNC(=O)c3nn[nH]n3)c3ccc(OC(=O)N(C)C)cc3oc2=O)c1F [Compound 213] | 100
CNS(=O)(=O)Nc1cccc(Cc2c(CC(=O)NC3CCOCC3)c3ccc(OC(=O)N(C)C)cc3oc2=O)c1F [Compound 215] | 100

Same assay, conditions: Homo sapiens, A549, 2 h, 10 uM, phospho:total ratio normalized to DMSO control

Compound | activity at 10 µM [%]
CNS(=O)(=O)Nc1cccc(Cc2c(CNCC(=O)N(C)C)c3ccc(OC(=O)N(C)C)cc3oc2=O)c1F [Compound 57] | 7.33
CNS(=O)(=O)Nc1cccc(Cc2c(CNC(N)=O)c3ccc(OC(=O)N(C)C)cc3oc2=O)c1F [Compound 105] | 7.39
CNS(=O)(=O)Nc1cccc(Cc2c(CNCC(=O)O)c3cc(Cl)c(OC(=O)N(C)C)cc3oc2=O)c1F [Compound 133] | 23.4
CNS(=O)(=O)Nc1cccc(Cc2c(CN3CCOCC3=O)c3ccc(OC(=O)N(C)C)cc3oc2=O)c1F [Compound 181] | 22.2
CNS(=O)(=O)Nc1cccc(Cc2c(CCNCC3CC3)c3ccc(OC(=O)N(C)C)cc3oc2=O)c1F [Compound 186] | 0.74
CCC(=O)NCc1c(Cc2cccc(NS(=O)(=O)NC)c2F)c(=O)oc2cc(OC(=O)N(C)C)ccc12 [Compound 207] | 11.3
CNS(=O)(=O)Nc1cccc(Cc2c(CNC(=O)C(C)C)c3ccc(OC(=O)N(C)C)cc3oc2=O)c1F [Compound 208] | 23.6
CNS(=O)(=O)Nc1cccc(Cc2c(CNC(=O)c3c[nH]nn3)c3ccc(OC(=O)N(C)C)cc3oc2=O)c1F [Compound 211] | 70.8
CNS(=O)(=O)Nc1cccc(Cc2c(CNC(=O)C(C)(C)O)c3ccc(OC(=O)N(C)C)cc3oc2=O)c1F [Compound 212] | 13
CNS(=O)(=O)Nc1cccc(Cc2c(CNC(=O)c3nn[nH]n3)c3ccc(OC(=O)N(C)C)cc3oc2=O)c1F [Compound 213] | 70.1
CNS(=O)(=O)Nc1cccc(Cc2c(CC(=O)NC3CCOCC3)c3ccc(OC(=O)N(C)C)cc3oc2=O)c1F [Compound 215] | 11.8
